Experimental data taken from patent US5498522A, “Methods for the use of spermidine/spermine N^1 -acetyltransferase as a prognostic indicator and/or a tumor response marker” (priority 1993, dated 1996).
“And” between values parts separate entries of the source, which are not always exact repeats. Equal values may be shown once.

How the values were obtained:
[1] = test system: polyamine pools of melanoma tumor; assay: polyamine pools in human melanoma xenografts in-vivo; settings: for polyamine pools: 16 hours after final injection
[2] = test system: HT29 colon adenocarcinoma xenografts; assay: antitumor response against HT29 colon adenocarcinoma xenografts in mice; type: in vivo, human
Procedure: (§1) […] where 1 represents length; w--width; and h--height. Tumor sizes were monitored 2 times/week until the median volume (V=0.4(a^2 ×b) where a is the smaller of the two perpendicular tumor diameters). As an indication of drug toxicity, animal weights were also recorded at the time of tumor volume measurement. Statistical analyses were performed on mouse tumor size and weight parameters by using the Mann-Whitney test.
(§2) Tumor growth suppression was measured by plotting the mean tumor volume versus the number of days post-inoculation with polyamine analog (growth curve analyses). Suppression is determined by comparison with the growth of untreated tumors (%T/C). More specifically,: %T/C is (treated tumor volume minus pretreatment volume) divided by (control tumor volume minus pretreatment volume)×100. Typically this is measured either when the control tumor volume reaches 1000 mm^3, or at the last day of treatment.
(§3) Tumor regression is measured as a percentage representing the average percentage of decrease in tumor volume from the largest pretreatment volume value.
(§4) Repression of regrowth is represented as regrowth delay, determined as the number of days following cessation of treatment when median group tumor volume exceeds 200 mm^3 (an arbitrary indication of regrowth which was determined statistically).
(§5) Cells from malignant solid human tumor tissue types, other than melanoma, have also been evaluated for their responsiveness to polyamine analog treatment including clonal cell lines A121 (human ovarian adenocarcinoma),A549 (lung adenocarcinoma), and HT29 colon adenocarcinoma). These cell lines were evaluated for the level of SSAT induction and potency of antitumor response following BENSPM treatment (80 mg/kg 3×/day×6 days) in-vivo using the methodology previously described in this embodiment. Also, dose of BENSPM was compared (80 mg/kg versus 40 mg/kg). The baseline of SSAT activity in the control mice (2 of 7 mice) ranged from 40 to 90 pmol/min/mg. Tumor cells from the human xenografts A121, A549, and HT29 were removed from two mice of each treated group of seven mice containing the respective xenograft at 16 hours following the final BENSPM injection to evaluate the level of induction of SSAT activity. […] The response to the polyamine analog was heterotypic. […] As discussed previously, it is not known whether the heterotypic antitumor response may be due to either the individual properties of the clonal line or the particular solid tumor type.

[3] = test system: ornithine decarboxylase (ODC); assay: ODC activity in human melanoma xenografts in-vivo
[4] = test system: LOX human melanoma xenografts; assay: antitumor response against LOX human melanoma xenografts in mice; type: in vivo
Procedure: as §1, §2, §3, §4
For example, SSAT activity and potency of antitumor response was examined for LOX and MALME-3 melanoma xenografts in mice. Mice developing palpable tumors of a similar size were divided into different treatment groups comprising 7 mice per treatment group, and 7 control mice per treatment group. The treated mice received 40 mg/kg of BENSPM administered every 8 hours for a 5 day period. Melanoma tumor cells comprising the human xenografts were removed from two mice of each group at 16 hours following the final BENSPM injection to evaluate the level of induction of SSAT activity. The antitumor response from polyamine analog therapy was assessed in the five remaining mice from each group by monitoring the tumor volume of the xenografts over days following treatment as compared to untreated xenografts.
For example, human melanoma cell lines including MALME-3, SH-1, PANUT-3 and LOX were evaluated for the level of SSAT induction and potency of antitumor response following BENSPM treatment (80 mg/kg 3×/day×6 days) using the methodology previously described in this embodiment. […] The baseline of SSAT activity in the control mice (2 examined of 7 mice) ranged from 50 to 90 pmol/min/mg. […] Note that following BENSPM treatment (as discussed above in the context of Tables 4 and 5), suppression of tumor growth of PANUT-3, unlike suppression of MALME-3 growth, lasted for only about 12 days. Further, the levels of SSAT in PANUT-3 at two weeks post-treatment, approached the levels in the control and correlated with the loss of antitumor activity.

[5] = BENSPM (analog) pools in tumor and host tissue; type: in vivo, mouse; design: BENSPM pool (tissue content): unit not given here
[6] = test system: A549 lung adenocarcinoma xenografts; assay: antitumor response against A549 lung adenocarcinoma xenografts in mice; type: in vivo, human
Procedure: as §1, §2, §3, §4, §5

[7] = test system: MALME-3 human melanoma cells; assay: growth of MALME-3 melanoma cells in-vitro (FIG. 5); type: cell-based; settings: MALME-3, 10 μM BESPM, 48 hours
Procedure: (§6) As mentioned previously, cells from malignant solid tumor respond to polyamine analog therapy heterotypically. SSAT induction and antitumor response may vary not only among the solid tumor tissue type, but also with the clonal line of tumor of a particular solid tissue type. However, a correlation between the level of induction of SSAT and the potency of antitumor response has been observed in tumors of a particular solid tissue type. For example, seven human melanoma cell lines were assayed in-vitro for their response, as determined by cell growth and level of SSAT induction, to 10 μM BESPM at 48 hours post-treatment. As summarized in FIG. 5, growth among the cell lines decreases as SSAT induction increases.

[8] = test system: Ebey human melanoma cells; assay: growth of Ebey melanoma cells in-vitro (FIG. 5); type: cell-based; settings: 10 μM BESPM, 48 hours
Procedure: as §6

natural polyamine pools = settings: in-vitro; cited from earlier work
[9] = test system: NCI H157 human large cell lung carcinoma cell line; settings: cited from earlier work
polyamine uptake = settings: cited from earlier work
[10] = MALME-3 tumor, 40 mg/kg 3x/day 6 days, 16 hrs post-treatment
[11] = MALME-3 tumor, 40 mg/kg, 2 wks post-treatment
[12] = HT29, BENSPM 80 mg/kg 3x/d × 6d
[13] = A549, BENSPM 80 mg/kg 3x/d × 6d
[14] = A549 xenograft, 80 mg/kg 3×/day×6 days

## CCNCCCNCCCNCCCNCC [BENSPM, N^1,N^11 -bis(ethyl)norspermine]
[1]; [10]
  PUT pool: 20/20
  SPD pool: 50/20
  SPM pool: 40/30
[1]; [11]
  N-acetylspermidine level: 240/180
  PUT pool: 370/290
  SPD pool: 560/160
  SPM pool: 200/80
[1]; MALME-3 tumor
  polyamine pools: almost totally depleted
[1]; PANUT-3 tumor
  polyamine pools: almost totally depleted
[2]; [12]
  % T/C at 1 g: 24%
  Tumor Regression: no measurable tumor regression and None
[2]; HT29, BENSPM 80 mg/kg 3x/d × 6d, dt 3.5 days
  Regrowth Delay: None
[2]; HT29, BENSPM 80 mg/kg 3x/d × 6d, for duration of experiment
  No Regrowth: two of five mice examined showed no regrowth and 2/5
[2]; HT29 xenograft, 80 mg/kg 3×/day×6 days
  growth rate: reduced growth rate
[3]; MALME-3 study
  ODC levels: ODC and SAMDC levels were not suppressed
[3]; PANUT-3 study
  ODC levels: ODC and SAMDC levels were not suppressed
[4]; LOX xenograft, 40 mg/kg every 8 hours for 5 days
  tumor regression, regrowth delay, lack of regrowth (FIG. 6): no significant tumor regression, regrowth delay, nor lack of regrowth
[4]; LOX, BENSPM at 80 mg/kg
  % T/C at 1 g: 40%
  Tumor Regression: None
[4]; LOX, BENSPM at 80 mg/kg, dt 5 days
  Regrowth Delay: None
[4]; LOX, BENSPM at 80 mg/kg, for duration of experiment
  No Regrowth: 0/5
[5]; [10]
  BENSPM pool (tissue content): 1020/1535
[5]; [11]
  BENSPM pool (tissue content): 620/470
[5]; kidney, 40 mg/kg, 2 wks post-treatment
  BENSPM pool (tissue content): 90/150
[5]; kidney, 40 mg/kg, 16 hrs post-treatment
  BENSPM pool (tissue content): 860/1705
[5]; liver, 40 mg/kg, 2 wks post-treatment
  BENSPM pool (tissue content): 40/40
[5]; liver, 40 mg/kg, 16 hrs post-treatment
  BENSPM pool (tissue content): 1180/1470
[5]; tumor, kidney and liver, 40 mg/kg, 16 hrs post-treatment
  metabolite peak of BENSPM: a peak which was similar in height to the SPM peak
[6]; [13]
  % T/C at 1 g: 13%
  Tumor Regression: no measurable tumor regression and None
[6]; A549, BENSPM 80 mg/kg 3x/d × 6d, dt 10 days
  Regrowth Delay: 8.5 × dt
[6]; A549, BENSPM 80 mg/kg 3x/d × 6d, for duration of experiment
  No Regrowth: 2/5
[6]; [14]
  growth suppression after cessation of treatment: 85 days
  tumor regrowth: minimal tumor regrowth

## CCNCCCNCCCCNCCCNCC [BESPM, N^1,N^12-bis(ethyl)spermine]
[7]
  growth inhibition (FIG. 5): greatest growth inhibition
[8]
  growth inhibition (FIG. 5): greatest growth inhibition
Natural polyamine pools
  natural polyamine pools: deplete natural polyamine pools
[9]
  cytotoxic response and SSAT induction: associated with a high induction of SSAT
Polyamine uptake
  polyamine uptake: suppresses polyamine uptake
